Assay results as given in patent US20150025154A1, “OPHTHALMIC COMPOSITION” (ROHTO PHARMACEUTICAL CO., LTD., priority 2012, published 2015).

Columns and labels:
Type in all cases: physicochemical
[1] = Test for residual ratio of GGA No. 1: storage of eye drops in glass or PET containers; settings: Tables 1 to 3, glass and PET containers
Description: (§1) In accordance with the measurement conditions for the elution test described in PFSB/ELD Notification No. 0412007 “teprenone 100 mg/g fine granule”, the GGA concentration of each eye drop was determined from the area value of the 5Z-mono-cis form (Ac) and the area value of the all-trans form (At) using Japanese pharmacopoeia “teprenone reference standard (all-trans form:5Z-mono-cis form=about 6:4 (weight ratio), Pharmaceutical and Medical Device Regulatory Science Society of Japan)” or teprenone (Wako Pure Chemical Industries) as a reference standard under the HPLC measurement conditions described below. For the eye drop containing teprenone (all-trans form:5Z-mono-cis form=3:2 (weight ratio)), the GGA content was calculated by summing the amounts of the all-trans form and the 5Z-mono-cis form. […]
A polyethylene terephthalate container (8 mL) (the container for Rohto Dryaid EX, Rohto Pharmaceutical) was completely filled with each of the eye drops in an aseptic manner. […] The teprenone or all-trans form content (g/100 mL) in each of the eye drops was quantified under the HPLC conditions described above immediately after the production and after being left to stand for a predetermined period of time, and the residual ratio (%) was calculated. […]

[2] = Test for residual ratio of GGA No. 2: eye drops in LDPE or HDPE eye drop containers, 40° C., 75% RH; settings: Table 6, LDPE and HDPE eye drop containers
Description: To a surfactant (POE castor oil and POE hydrogenated castor oil 60) warmed to 65° C., the all-trans form and optionally ascorbyl tetraisopalmitate were added and dissolved under stirring in a hot water bath at 65° C. for 2 minutes. Water at 65° C. was added and each buffer was added under stirring to give a homogeneous solution. The pH and osmotic pressure were adjusted with hydrochloric acid or sodium hydroxide.
Ten mL of each of the thus obtained eye drops was poured into a 13 mL eye drop container (material: low density polyethylene or high density polyethylene; shape: the same as that of the container for Namida Rohto Dry Eye (trade name) (Rohto Pharmaceutical)) with a glass volumetric pipette and the container was sealed.
For these eye drops, the stability test was performed by leaving them to stand in the upright position at 40° C., 75% RH for 2 hours, 8 hours, and 24 hours. The all-trans form content (g/100 mL) in each of the eye drops was quantified by HPLC immediately after the production and after being left to stand for a predetermined period of time, and the residual ratio (%) was calculated.

[3] = Residual ratio of GGA in eye drops held in various plastic or glass containers, 40° C., 75% RH, 2 hours; settings: Table 4, various container materials
Description: as §1
Five mL of each of the eye drops was poured into various plastic or glass containers (volume: 10 to 15 mL) with a glass volumetric pipette and the containers were sealed. […] The all-trans form content (g/100 mL) in each of the eye drops was quantified under the HPLC conditions described above immediately after the production and after being left to stand for a predetermined period of time, and the residual ratio (%) was calculated.

Cc1cc(C(C)(C)C)c(O)c(C(C)(C)C)c1 [BHT, butylhydroxytoluene]
Effect of added fat-soluble antioxidant on loss of the GGA content [1]: greatly reduced the loss of the GGA content

CCCCCCCCC(CCCCCC)C(=O)OC[C@H](OC(=O)C(CCCCCC)CCCCCCCC)[C@H]1OC(=O)C(OC(=O)C(CCCCCC)CCCCCCCC)=C1OC(=O)C(CCCCCC)CCCCCCCC (stereo partly drawn) [ascorbyl tetraisopalmitate]
Effect of added fat-soluble antioxidant on adsorption of GGA to the container wall [2]: reduced adsorption of GGA to the wall of the containers in a dose-dependent manner

CCCCCCCCCCCCCCCC(=O)OC/C=C(C)/C=C/C=C(C)/C=C/C1=C(C)CCCC1(C)C [retinol palmitate]
Effect of added fat-soluble antioxidant on loss of the GGA content [3]: greatly reduced the loss of the GGA content
